Earlier results, collected in patent publication US11904002B2, “Construction and methods of use of a therapeutic cancer vaccine library comprising fusion-specific vaccines” (BostonGene Corporation, priority 2016, dated 2024).

System: CD8+ T-cells
Conditions: CD8+ T-cells generated as a consequence of anti-PD1 treatment; murine MHC H-2Kb

ITYTWTRL
recognition by CD8+ T-cells: targets of CD8+ T-cells

VGFNFRTL
recognition by CD8+ T-cells: targets of CD8+ T-cells
